Reference: PubChem BioAssay AID2060621 (Molecular Pharmacology Branch, DTP, NCI, 2025)
pIC50: −log10 of the molar value.

Test system: 324938-238-R-J1-PDC complex spheroids viability
Assay: Anticancer human tumor 324938-238-R-J1-PDC patient-derived bladder carcinoma cell line growth inhibition [CLK]
Conditions: for pIC50: curve of first compound; for viability, T/C: stronger effect = lower value
Outline: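 Patient-derived tumor cells grown as complex spheroids with HUVEC endothelial cells and mesenchymal stem cells, treated with drug combinations. Concentrations descend in half-log steps from near clinical Cmax, or from 10 microM if Cmax unknown.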

[1] = second compound 0.0316 µM, first compound 0.0316 µM
[2] = second compound 0.0316 µM, first compound 0.1 µM
[3] = second compound 0.1 µM, first compound 0.0316 µM
[4] = second compound 0.1 µM, first compound 0.1 µM
[5] = second compound 0.316 µM, first compound 0.0316 µM
[6] = second compound 0.316 µM, first compound 0.1 µM
[7] = second compound 1 µM, first compound 0.0316 µM
[8] = second compound 1 µM, first compound 0.1 µM
[9] = second compound 3.16 µM, first compound 0.0316 µM
[10] = second compound 3.16 µM, first compound 0.1 µM
[11] = second compound 10 µM, first compound 0.0316 µM
[12] = second compound 10 µM, first compound 0.1 µM
[13] = second compound 0.0316 µM, first compound 0.316 µM
[14] = second compound 0.0316 µM, first compound 1 µM
[15] = second compound 0.0316 µM, first compound 3.16 µM
[16] = second compound 0.0316 µM, first compound 10 µM
[17] = second compound 0.1 µM, first compound 0.316 µM
[18] = second compound 0.1 µM, first compound 1 µM
[19] = second compound 0.1 µM, first compound 3.16 µM
[20] = second compound 0.1 µM, first compound 10 µM
[21] = second compound 0.316 µM, first compound 0.316 µM
[22] = second compound 0.316 µM, first compound 1 µM
[23] = second compound 0.316 µM, first compound 3.16 µM
[24] = second compound 0.316 µM, first compound 10 µM
[25] = second compound 1 µM, first compound 0.316 µM
[26] = second compound 1 µM, first compound 1 µM
[27] = second compound 1 µM, first compound 3.16 µM
[28] = second compound 1 µM, first compound 10 µM
[29] = second compound 3.16 µM, first compound 0.316 µM
[30] = second compound 3.16 µM, first compound 1 µM
[31] = second compound 3.16 µM, first compound 3.16 µM
[32] = second compound 3.16 µM, first compound 10 µM
[33] = second compound 10 µM, first compound 0.316 µM
[34] = second compound 10 µM, first compound 1 µM
[35] = second compound 10 µM, first compound 3.16 µM
[36] = second compound 10 µM, first compound 10 µM
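Further: viability read after seven days of drug exposure.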
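Wherever viability, T/C is given: 100% = DMSO vehicle control wells.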

Cn1ncnc1[C@H]1c2n[nH]c(=O)c3cc(F)cc(c23)N[C@@H]1c1ccc(F)cc1 + CNC(=O)c1ccc(Nc2nc(OC3CCCC3)c3c(-c4ccc5nc(C)oc5c4)c[nH]c3n2)c(OC)c1
pIC50 (second compound 0.0316 µM): 7.92
pIC50 (second compound 0.1 µM): > 9.50
pIC50 (second compound 0.316 µM): > 9.50
pIC50 (second compound 1 µM): > 9.50
pIC50 (second compound 3.16 µM): > 9.50
pIC50 (second compound 10 µM): > 9.50
viability, T/C (second compound 0.0316 µM, first compound 0.000316 µM): 83%
viability, T/C (second compound 0.0316 µM, first compound 0.001 µM): 89.5%
viability, T/C (second compound 0.0316 µM, first compound 0.00316 µM): 66.3%
viability, T/C (second compound 0.0316 µM, first compound 0.01 µM): 54.8%
viability, T/C [1]: 35.1%
viability, T/C [2]: 26.6%
viability, T/C (second compound 0.1 µM, first compound 0.000316 µM): 26.2%
viability, T/C (second compound 0.1 µM, first compound 0.001 µM): 26.5%
viability, T/C (second compound 0.1 µM, first compound 0.00316 µM): 21.8%
viability, T/C (second compound 0.1 µM, first compound 0.01 µM): 21%
viability, T/C [3]: 20.4%
viability, T/C [4]: 20.7%
viability, T/C (second compound 0.316 µM, first compound 0.000316 µM): 17.8%
viability, T/C (second compound 0.316 µM, first compound 0.001 µM): 20.8%
viability, T/C (second compound 0.316 µM, first compound 0.00316 µM): 16.7%
viability, T/C (second compound 0.316 µM, first compound 0.01 µM): 18.7%
viability, T/C [5]: 19.8%
viability, T/C [6]: 17.4%
viability, T/C (second compound 1 µM, first compound 0.000316 µM): 16.5%
viability, T/C (second compound 1 µM, first compound 0.001 µM): 15.4%
viability, T/C (second compound 1 µM, first compound 0.00316 µM): 14.7%
viability, T/C (second compound 1 µM, first compound 0.01 µM): 13.9%
viability, T/C [7]: 14.8%
viability, T/C [8]: 15.9%
viability, T/C (second compound 3.16 µM, first compound 0.000316 µM): 17.5%
viability, T/C (second compound 3.16 µM, first compound 0.001 µM): 19.6%
viability, T/C (second compound 3.16 µM, first compound 0.00316 µM): 15.4%
viability, T/C (second compound 3.16 µM, first compound 0.01 µM): 17%
viability, T/C [9]: 18%
viability, T/C [10]: 15.4%
viability, T/C (second compound 10 µM, first compound 0.000316 µM): 18.2%
viability, T/C (second compound 10 µM, first compound 0.001 µM): 18.8%
viability, T/C (second compound 10 µM, first compound 0.00316 µM): 18.9%
viability, T/C (second compound 10 µM, first compound 0.01 µM): 17.8%
viability, T/C [11]: 18.7%
viability, T/C [12]: 17.3%

Nc1ccn(C2OC(CO)C(O)C2(F)F)c(=O)n1 (stereo unspecified) + CNC(=O)c1ccc(Nc2nc(OC3CCCC3)c3c(-c4ccc5nc(C)oc5c4)c[nH]c3n2)c(OC)c1
pIC50 (second compound 0.0316 µM): > 7.50
pIC50 (second compound 0.1 µM): > 7.50
pIC50 (second compound 0.316 µM): > 7.50
pIC50 (second compound 1 µM): > 7.50
pIC50 (second compound 3.16 µM): > 7.50
pIC50 (second compound 10 µM): > 7.50
viability, T/C [1]: 38.6%
viability, T/C [2]: 16.4%
viability, T/C [13]: 15.2%
viability, T/C [14]: 14%
viability, T/C [15]: 10.6%
viability, T/C [16]: 8.72%
viability, T/C [3]: 23%
viability, T/C [4]: 18.8%
viability, T/C [17]: 12.8%
viability, T/C [18]: 14.2%
viability, T/C [19]: 10.3%
viability, T/C [20]: 7.12%
viability, T/C [5]: 17.1%
viability, T/C [6]: 14.8%
viability, T/C [21]: 12.3%
viability, T/C [22]: 12.5%
viability, T/C [23]: 8.68%
viability, T/C [24]: 7.82%
viability, T/C [7]: 15%
viability, T/C [8]: 15.4%
viability, T/C [25]: 12.2%
viability, T/C [26]: 11.6%
viability, T/C [27]: 9.63%
viability, T/C [28]: 8.24%
viability, T/C [9]: 17.1%
viability, T/C [10]: 13.7%
viability, T/C [29]: 13%
viability, T/C [30]: 12%
viability, T/C [31]: 8.99%
viability, T/C [32]: 9.03%
viability, T/C [11]: 18%
viability, T/C [12]: 12.9%
viability, T/C [33]: 14.3%
viability, T/C [34]: 12.1%
viability, T/C [35]: 13.4%
viability, T/C [36]: 8.05%

O=C(c1cc(Cc2n[nH]c(=O)c3ccccc23)ccc1F)N1CCN(C(=O)C2CC2)CC1 + CNC(=O)c1ccc(Nc2nc(OC3CCCC3)c3c(-c4ccc5nc(C)oc5c4)c[nH]c3n2)c(OC)c1
pIC50 (second compound 0.0316 µM): 5.37
pIC50 (second compound 0.1 µM): > 7.50
pIC50 (second compound 0.316 µM): > 7.50
pIC50 (second compound 1 µM): > 7.50
pIC50 (second compound 3.16 µM): > 7.50
pIC50 (second compound 10 µM): > 7.50
viability, T/C [1]: 90.9%
viability, T/C [2]: 78.5%
viability, T/C [13]: 83.2%
viability, T/C [14]: 77.7%
viability, T/C [15]: 56.9%
viability, T/C [16]: 29.4%
viability, T/C [3]: 31.1%
viability, T/C [4]: 27.2%
viability, T/C [17]: 24.9%
viability, T/C [18]: 28%
viability, T/C [19]: 30.4%
viability, T/C [20]: 20.8%
viability, T/C [5]: 18.6%
viability, T/C [6]: 20.8%
viability, T/C [21]: 16.2%
viability, T/C [22]: 21.2%
viability, T/C [23]: 19%
viability, T/C [24]: 17.9%
viability, T/C [7]: 15.9%
viability, T/C [8]: 15.2%
viability, T/C [25]: 16.8%
viability, T/C [26]: 15.3%
viability, T/C [27]: 17.7%
viability, T/C [28]: 15.8%
viability, T/C [9]: 16.9%
viability, T/C [10]: 17.1%
viability, T/C [29]: 19.4%
viability, T/C [30]: 17.3%
viability, T/C [31]: 15.5%
viability, T/C [32]: 17.7%
viability, T/C [11]: 16.2%
viability, T/C [12]: 14.3%
viability, T/C [33]: 15.3%
viability, T/C [34]: 18.2%
viability, T/C [35]: 16.1%
viability, T/C [36]: 17.4%
